Measurements: patent US10583206B2, “Radioactive probe for detecting hydrogen sulfide” (KYUNGPOOK NATIONAL UNIVERSITY INDUSTRY-ACADEMIC COOPERATION …, priority 2015, dated 2020)
Where two headings read alike, the source gives them in different places.

Tests used:
[1] = system: Arthritis model; test: Imaging in arthritis model; type: in vivo, DBA/1J mice
Procedure: An arthritis inducer, bovine type II collagen was intradermally injected into the tails of DBA/1J mice twice, and 5 weeks later (about 13-week-old), the mice were used in imaging tests. Arthritis degree of the paw was quantified by scoring.
Nuclear medicine imaging was measured by using an Inveon PET/CT system of Siemens Healthcare, and optical imaging was measured by using IVIS spectrum CT equipment. Cherenkov radiation emitted from ^64Cu was measured by using a highly sensitive CCD (charge-coupled device) camera.
Imaging was measured for 1 minute to 5 minutes, and a radiation dose was about 50 μCi to 2000 μCi, and photographs were variously taken as needed, such as immediately after first injection, at 1 hour, 4 hours, and 24 hours later.

[2] = Test of hydrogen sulfide-specific imaging (matrigel/NaHS sites on backs of rats, optical imaging); type: in vivo
Procedure: In order to examine whether the ^64Cu-labeled complex compounds according to the present disclosure are able to selectively detect in vivo hydrogen sulfide, different materials were injected into the backs of rats, and then each ^64Cu-labeled complex compound according to the present disclosure was injected via the tail, and then selective imaging was examined by optical imaging.
Referring to FIG. 4, at the beginning of the first experiment, matrigel alone, matrigel+1 mg NaCl, matrigel+0.5 mg NaHS, and matrigel+0.05 mg NaHS were injected into four sites on the backs of rats, respectively. 1.8 mCi of the ^64Cu-labeled complex compound according to Example 1 was injected via the tails of rats, immediately followed by optical imaging.

[3] = system: CT26 tumor; test: Imaging study in CT26 tumor model (PET); type: in vivo, BALB/c mouse
Source text: (§1) To prepare a CT26 tumor model, the number of cells was counted using a haemacytometer, and 5×10^6 cells were subcutaneously injected into the right flank of BALB/c mouse. About 10 days later, when formation of about 1 cm of tumor was observed, the mice were used in subsequent experiments.
(§2) PET images were obtained after injecting the ^64Cu-labeled complex compound of Example 1 into the prepared rat model having EMT6 tumor and rat model having CT26 tumor.

[4] = Imaging study of hydrogen sulfide in normal rat (PET); type: in vivo; conditions: PET image before excision of the tongue
Source text: PET images were obtained after injecting the ^64Cu-labeled complex compound of Example 1 into a normal rat, and PET images were obtained again after excision of the tongue thereof. […] However, after excision (B), the uptake was decreased in the same site. […] (C) is a photograph taken before imaging the tongue after excision.

[5] = Hydrogen sulfide selectivity test: decomplexation by H2O2; type: physicochemical; conditions: H2O2 (100 µM); 37° C. for 15 minutes
Procedure: (§3) In addition to hydrogen sulfide, many different anions, radicals, etc. exist in the body. Therefore, to examine selective reactivity of the ^64Cu-labeled complex compound according to the present disclosure for sulfide ions, the following experiment was performed.
(§4) About 45 μCi-55 μCi of the ^64Cu-labeled complex compound (250 μL of triple distilled water) was mixed with 100 μM of various anion solutions (250 μL of triple distilled water) including biothiol, and stirred at 37° C. for 15 minutes.
(§5) Formation of copper sulfide (^64CuS) was quantified by using a radio-TLC scanner.
(§6) Various biothiol or salt solutions were prepared by dissolving the compounds in triple distilled water.
(§7) In Table, concentrations of all biothiols and other competitive materials are 100 μM. Further, specific concentrations of biothiols, anions, and oxidants used in Table are as follows: [L-Cys (1 mM); L-Hcys (10 mM); GSH (10 mM); DL-dithiothretitol (DTT, 100 μM); L-ascorbic acid (L-AsA, 10 mM); 2-mercaptoethanol (2-ME, 10 mM); NaCl (10 mm); KI (1 mM); Na2S2O3 (1 mM); Na2S2O5 (1 mM); NaOAc (1 mM); H2O2 ([…]); NaClO4 (100 μM); NaHCO3 (100 μM); NaNO2 ([…]); NaN3 (100 μM); ATB 337 (100 μM); diallyl trisulphide (100 μM)].

[6] = Hydrogen sulfide selectivity test: decomplexation by L-AsA; type: physicochemical; conditions: L-ascorbic acid; 100 μM or (L-AsA, 10 mM); 37° C. for 15 minutes
Procedure: as §3, §4, §5, §6, §7

[7] = system: EMT6 tumor; test: Imaging study in EMT6 tumor model (PET); type: in vivo, BALB/c female mouse
Source text: as §1, with “an EMT6” for “a CT26”, “2×10^5” for “5×10^6”, “flank and left shoulder region” for “flank”, “BALB/c female” for “BALB/c”, “2˜3 weeks” for “10 days”
as §2

[8] = system: Paw inflammation model; type: in vivo, Balb/c or ICR mice
In short: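 CFA or formalin injected into right hind paw of Balb/c or ICR mice; used 1 day later. PET/CT, optical and Cherenkov (^64Cu, CCD) imaging, 1–5 min acquisitions, dose about 50–2000 μCi, imaged immediately and at 1, 4 and 24 hours post-injection.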

[9] = Test of hydrogen sulfide detection over time (^64CuS formation, radio-TLC); type: physicochemical; design: unit not given here; conditions: 100 μM NaHS, 37° C.
[10] = system: Sepsis model; test: Imaging study in sepsis model (PET); type: in vivo, ICR mice
Source text: After the lower abdominal region of ICR mice was opened, a small puncture in the appendix was made by using a syringe needle to prepare an acute sepsis model.
PET images were obtained after injecting the ^64Cu-labeled complex compound of Example 20 into the prepared rat model having sepsis.

Row | Compound | Decomplexation [%] [5] [%] | Decomplexation [%] [6] [%] | Formation of copper sulfide (^64CuS) over time ([9]; 10 sec) | Formation of copper sulfide (^64CuS) over time ([9]; 30 sec) | Formation of copper sulfide (^64CuS) over time ([9]; 60 sec) | Formation of copper sulfide (^64CuS) over time ([9]; 5 min) | Formation of copper sulfide (^64CuS) over time ([9]; 10 min) | Formation of copper sulfide (^64CuS) over time ([9]; 15 min) | also measured
1 | C1C[N]2CC[N]3CC[N]4CC[N]1[64Cu]243 [Example 1, ^64Cu-labeled cyclen] | 0.5 ± 0.4 | 0.5 ± 0.1 | 13 | 17 | 21 | 100 | 100 | 100 | uptake in the joint region [1]: selective uptake in the joint region; optical imaging signals at four injected sites (matrigel alone, +NaCl, +0.5 mg NaHS, +0.05 mg NaHS) ([2]; 1.8 mCi via the tails of rats, imaging immediately): signals were detected only in the lower two sites injected with NaHS; optical imaging signals at four injected sites (matrigel alone, +NaCl, +0.5 mg NaHS, +0.05 mg NaHS) ([2]; after 4 hours): signals were still detected only in the lower two sites; uptake in the tumor region versus background [3]: higher uptake was observed in the tumor region; uptake in the tongue [4]: high uptake was observed in the tongue; uptake in the tumor region versus background [7]: higher uptake was observed in the tumor region; retention time in the animal models ([8]; ICR and Balb/c, mouse, in vivo): ≥ 24 h; uptake in inflamed paw versus opposite paw ([8]; PET imaging): higher uptake in the inflamed right paw than in the opposite paw; uptake in the CFA-induced inflamed site ([8]; optical imaging): increased uptake
2 | C1C[N]2CC[N]3CC[N]1[64Cu]23 [Example 20, ^64Cu-labeled TACN] | 0.8 ± 0.3 | 0.8 ± 0.5 | 0 | 0 | 5 | 13 | 60 | 60 | uptake in the lung [10]: increased uptake was observed in the lung; uptake throughout the body [10]: uptake was increased throughout the body; detection of the inflamed site immediately after injection ([8]; imaging immediately after injection): detected in imaging immediately after injection; uptake in inflamed paw versus opposite paw ([8]; imaging performed after 1 hour, also PET imaging): higher uptake
